Legend:
Type in all cases: in vivo
[1] = test system: blackgrass (Alopecurus myosuroides); test: Test C preemergence, blackgrass; conditions: 0 is no effect, 100 is complete control
Text: (§1) Seeds of plant species selected from blackgrass (Alopecurus myosuroides), corn (Zea mays), foxtail, giant (giant foxtail, Setaria faberi), goosegrass (Eleusine indica), kochia (Bassia scoparia), oat, wild (wild oat, Avena fatua), pigweed, palmer (palmer amaranth, Amaranthus palmeri), ragweed (common ragweed, Ambrosia artemisiifolia), ryegrass, Italian (Italian ryegrass, Lolium multiflorum), soybean (Glycine max) and wheat (Triticum aestivum) were planted into a blend of loam soil and sand and treated preemergence with a directed soil spray using test chemicals formulated in a non-phytotoxic solvent mixture which included a surfactant.
(§2) At the same time, plants selected from these crop and weed species and also galium (catchweed bedstraw, Galium aparine) and horseweed (Erigeron canadensis) were planted in pots containing the same blend of loam soil and sand and treated with postemergence applications of test chemicals formulated in the same manner. Plants ranged in height from 2 to 10 cm and were in the one- to two-leaf stage for the postemergence treatment. Treated plants and untreated controls were maintained in a greenhouse for 10 or 12 days, after which time all treated plants were compared to untreated controls and visually evaluated for injury. Plant response ratings, summarized in Table A, are based on a 0 to 100 scale where 0 is no effect and 100 is complete control. A dash (-) response means no test result.

[2] = test system: corn (Zea mays); test: Test C preemergence, corn; conditions: 0 is no effect, 100 is complete control
Text: as §1, §2

[3] = test system: foxtail, giant (giant foxtail, Setaria faberi); test: Test C preemergence, giant foxtail; conditions: 0 is no effect, 100 is complete control
Text: as §1, §2

[4] = test system: goosegrass (Eleusine indica); test: Test C preemergence, goosegrass; conditions: 0 is no effect, 100 is complete control
Text: as §1, §2

[5] = test system: kochia (Bassia scoparia); test: Test C preemergence, kochia; conditions: 0 is no effect, 100 is complete control
Text: as §1, §2

[6] = test system: oat, wild (wild oat, Avena fatua); test: Test C preemergence, wild oat; conditions: 0 is no effect, 100 is complete control
Text: as §1, §2

[7] = test system: pigweed, palmer (palmer amaranth, Amaranthus palmeri); test: Test C preemergence, palmer amaranth; conditions: 0 is no effect, 100 is complete control
Text: as §1, §2

[8] = test system: ragweed (common ragweed, Ambrosia artemisiifolia); test: Test C preemergence, ragweed; conditions: 0 is no effect, 100 is complete control
Text: as §1, §2

[9] = test system: ryegrass, Italian (Italian ryegrass, Lolium multiflorum); test: Test C preemergence, Italian ryegrass; conditions: 0 is no effect, 100 is complete control
Text: as §1, §2

[10] = test system: soybean (Glycine max); test: Test C preemergence, soybean; conditions: 0 is no effect, 100 is complete control
Text: as §1, §2

[11] = test system: wheat (Triticum aestivum); test: Test C preemergence, wheat; conditions: 0 is no effect, 100 is complete control
Text: as §1, §2

[12] = test system: blackgrass (Alopecurus myosuroides); test: Test C postemergence, blackgrass; conditions: visual injury, 0 to 100 scale (0 no effect, 100 complete control)
Text: as §1, §2

[13] = test system: corn (Zea mays); test: Test C postemergence, corn; conditions: visual injury, 0 to 100 scale (0 no effect, 100 complete control)
Text: as §1, §2

[14] = test system: foxtail, giant (giant foxtail, Setaria faberi); test: Test C postemergence, giant foxtail; conditions: visual injury, 0 to 100 scale (0 no effect, 100 complete control)
Text: as §1, §2

[15] = test system: goosegrass (Eleusine indica); test: Test C postemergence, goosegrass; conditions: visual injury, 0 to 100 scale (0 no effect, 100 complete control)
Text: as §1, §2

[16] = test system: kochia (Bassia scoparia); test: Test C postemergence, kochia; conditions: visual injury, 0 to 100 scale (0 no effect, 100 complete control)
Text: as §1, §2

[17] = test system: oat, wild (wild oat, Avena fatua); test: Test C postemergence, wild oat; conditions: visual injury, 0 to 100 scale (0 no effect, 100 complete control)
Text: as §1, §2

[18] = test system: pigweed, palmer (palmer amaranth, Amaranthus palmeri); test: Test C postemergence, palmer amaranth; conditions: visual injury, 0 to 100 scale (0 no effect, 100 complete control)
Text: as §1, §2

[19] = test system: ragweed (common ragweed, Ambrosia artemisiifolia); test: Test C postemergence, ragweed; conditions: visual injury, 0 to 100 scale (0 no effect, 100 complete control)
Text: as §1, §2

[20] = test system: ryegrass, Italian (Italian ryegrass, Lolium multiflorum); test: Test C postemergence, Italian ryegrass; conditions: visual injury, 0 to 100 scale (0 no effect, 100 complete control)
Text: as §1, §2

[21] = test system: soybean (Glycine max); test: Test C postemergence, soybean; conditions: visual injury, 0 to 100 scale (0 no effect, 100 complete control)
Text: as §1, §2

[22] = test system: wheat (Triticum aestivum); test: Test C postemergence, wheat; conditions: visual injury, 0 to 100 scale (0 no effect, 100 complete control)
Text: as §1, §2

[23] = test system: galium (catchweed bedstraw, Galium aparine); test: Test C postemergence, galium; conditions: visual injury, 0 to 100 scale (0 no effect, 100 complete control)
Text: as §1, §2

[24] = test system: horseweed (Erigeron canadensis); test: Test C postemergence, horseweed; conditions: visual injury, 0 to 100 scale (0 no effect, 100 complete control)
Text: as §1, §2

[25] = test system: barnyardgrass (Echinochloa crusgalli); test: Test D flooded paddy test, barnyardgrass; parameters: key: 0 = no effect, 100 = complete control; conditions: 250 g ai/ha, Flood; applied to paddy water at 2-leaf stage; visual rating after 13 days; scale 0 (no effect) to 100 (complete control)
Procedure: (§3) Plant species in the flooded paddy test selected from barnyardgrass (Echinochloa crusgalli), ducksalad (Heteranthera limosa), rice (Oryza sativa), and sedge, umbrella (small-flower umbrella sedge, Cyperus difformis) were grown to the 2-leaf stage for testing. At time of treatment, test pots were flooded to 3 cm above the soil surface, treated by application of test compounds directly to the paddy water, and then maintained at that water depth for the duration of the test. Treated plants and controls were maintained in a greenhouse for 13 days, after which time all species were compared to controls and visually evaluated. Plant response ratings, summarized in Table B, are based on a scale of 0 to 100 where 0 is no effect and 100 is complete control. A dash (-) response means no test result.

[26] = test system: ducksalad (Heteranthera limosa); test: Test D flooded paddy test, ducksalad; parameters: key: 0 = no effect, 100 = complete control; conditions: 250 g ai/ha, Flood; applied to paddy water at 2-leaf stage; visual rating after 13 days; scale 0 (no effect) to 100 (complete control)
Procedure: as §3

[27] = test system: rice (Oryza sativa); test: Test D flooded paddy test, rice; parameters: key: 0 = no effect, 100 = complete control; conditions: 250 g ai/ha, Flood; applied to paddy water at 2-leaf stage; visual rating after 13 days; scale 0 (no effect) to 100 (complete control)
Procedure: as §3

[28] = test system: sedge, umbrella (small-flower umbrella sedge, Cyperus difformis); test: Test D flooded paddy test, umbrella sedge; parameters: key: 0 = no effect, 100 = complete control; conditions: 250 g ai/ha, Flood; applied to paddy water at 2-leaf stage; visual rating after 13 days; scale 0 (no effect) to 100 (complete control)
Procedure: as §3

## Cc1cc(C)c(N2CCC(OCc3ccccc3)C2=O)cc1NS(=O)(=O)C(F)(F)F (stereo not shown) [Compound 61]
[1]; 31 g ai/ha Preemergence
  Plant response rating (0 to 100 scale), Blackgrass: 60
[1]; 125 g ai/ha Preemergence
  Plant response rating (0 to 100 scale), Blackgrass: 90
[2]; 31 g ai/ha Preemergence
  Plant response rating (0 to 100 scale), Corn: 20
[2]; 125 g ai/ha Preemergence
  Plant response rating (0 to 100 scale), Corn: 100
[3]; 31 g ai/ha Preemergence
  Plant response rating (0 to 100 scale), Foxtail, Giant: 100
[3]; 125 g ai/ha Preemergence
  Plant response rating (0 to 100 scale), Foxtail, Giant: 100
[4]; 31 g ai/ha Preemergence
  Plant response rating (0 to 100 scale), Goosegrass: 100
[4]; 125 g ai/ha Preemergence
  Plant response rating (0 to 100 scale), Goosegrass: 100
[5]; 31 g ai/ha Preemergence
  Plant response rating (0 to 100 scale), Kochia: 90
[5]; 125 g ai/ha Preemergence
  Plant response rating (0 to 100 scale), Kochia: 100
[6]; 31 g ai/ha Preemergence
  Plant response rating (0 to 100 scale), Oat, Wild: 50
[6]; 125 g ai/ha Preemergence
  Plant response rating (0 to 100 scale), Oat, Wild: 90
[7]; 31 g ai/ha Preemergence
  Plant response rating (0 to 100 scale), Pigweed, Palmer: 100
[7]; 125 g ai/ha Preemergence
  Plant response rating (0 to 100 scale), Pigweed, Palmer: 100
[8]; 31 g ai/ha Preemergence
  Plant response rating (0 to 100 scale), Ragweed: 0
[8]; 125 g ai/ha Preemergence
  Plant response rating (0 to 100 scale), Ragweed: 90
[9]; 31 g ai/ha Preemergence
  Plant response rating (0 to 100 scale), Ryegrass, Italian: 60
[9]; 125 g ai/ha Preemergence
  Plant response rating (0 to 100 scale), Ryegrass, Italian: 90
[10]; 31 g ai/ha Preemergence
  Plant response rating (0 to 100 scale), Soybean: 40
[10]; 125 g ai/ha Preemergence
  Plant response rating (0 to 100 scale), Soybean: 90
[11]; 31 g ai/ha Preemergence
  Plant response rating (0 to 100 scale), Wheat: 30
[11]; 125 g ai/ha Preemergence
  Plant response rating (0 to 100 scale), Wheat: 100
[12]; 31 g ai/ha Postemergence
  Blackgrass plant response rating: 30
[12]; 125 g ai/ha Postemergence
  Blackgrass plant response rating: 70
[13]; 31 g ai/ha Postemergence
  Corn plant response rating: 10
[13]; 125 g ai/ha Postemergence
  Corn plant response rating: 60
[14]; 31 g ai/ha Postemergence
  Foxtail, Giant plant response rating: 20
[14]; 125 g ai/ha Postemergence
  Foxtail, Giant plant response rating: 50
[15]; 31 g ai/ha Postemergence
  Goosegrass plant response rating: 40
[15]; 125 g ai/ha Postemergence
  Goosegrass plant response rating: 90
[16]; 31 g ai/ha Postemergence
  Kochia plant response rating: 60
[16]; 125 g ai/ha Postemergence
  Kochia plant response rating: 90
[17]; 31 g ai/ha Postemergence
  Oat, Wild plant response rating: 20
[17]; 125 g ai/ha Postemergence
  Oat, Wild plant response rating: 80
[18]; 31 g ai/ha Postemergence
  Pigweed, Palmer plant response rating: 50
[18]; 125 g ai/ha Postemergence
  Pigweed, Palmer plant response rating: 80
[19]; 31 g ai/ha Postemergence
  Ragweed plant response rating: 50
[19]; 125 g ai/ha Postemergence
  Ragweed plant response rating: 80
[20]; 31 g ai/ha Postemergence
  Ryegrass, Italian plant response rating: 0
[20]; 125 g ai/ha Postemergence
  Ryegrass, Italian plant response rating: 60
[21]; 31 g ai/ha Postemergence
  Soybean plant response rating: 60
[21]; 125 g ai/ha Postemergence
  Soybean plant response rating: 90
[22]; 31 g ai/ha Postemergence
  Wheat plant response rating: 70
[22]; 125 g ai/ha Postemergence
  Wheat plant response rating: 80
[23]; 31 g ai/ha Postemergence
  Galium plant response rating: 70
[23]; 125 g ai/ha Postemergence
  Galium plant response rating: 90
[24]; 31 g ai/ha Postemergence
  Horseweed plant response rating: 60
[24]; 125 g ai/ha Postemergence
  Horseweed plant response rating: 60
[25]
  Plant response rating, Barnyardgrass: 95
[26]
  Plant response rating, Ducksalad: 75
[27]
  Plant response rating, Rice: 20
[28]
  Plant response rating, Sedge, Umbrella: 90

Source: US20240158348A1, “HERBICIDAL CYCLIC AMIDES N-SUBSTITUTED WITH A HALOALKYLSULFONYLANILIDE GROUP” (FMC Corporation, priority 2021, published 2024)
